pIC50: −log10 of the molar value.
Target: IRAK4 (Homo sapiens (Human), UniProt Q9NWZ3)
Experiment: IRAK4 Inhibition Assay
Assay type: biochemical
Conditions: ATP 500 μM; FL-IPTSPITTTYFFFKKK peptide 1.5 μM; IRAK4 0.6 nM; 60 min at room temperature; Caliper LabChip 3000
Procedure: The assays were performed in U-bottom 384-well plates. The final assay volume was 30 μL prepared from 15 μL additions of enzyme and substrates (fluoresceinated peptide and ATP) and test compounds in assay buffer (20 mM HEPES pH 7.2, 10 mM MgCl2, 0.015% Brij35 and 4 mM DTT). The reaction was initiated by the combination of IRAK4 with substrates and test compounds. The reaction was incubated at room temperature for 60 min. and terminated by adding 45 μL of 35 mM EDTA to each sample. The reaction mixture was analyzed on the Caliper LabChip 3000 (Caliper, Hopkinton, Mass.) by electrophoretic separation of the fluorescent substrate and phosphorylated product. Inhibition data were calculated by comparison to no enzyme control reactions for 100% inhibition and vehicle-only reactions for 0% inhibition. The final concentrations of reagents in the assays are ATP, 500 μM; FL-IPTSPITTTYFFFKKK peptide 1.5 μM; IRAK4, 0.6 nM; and DMSO, 1.6%.

Sequence of IRAK4 (Q9NWZ3 whole entry): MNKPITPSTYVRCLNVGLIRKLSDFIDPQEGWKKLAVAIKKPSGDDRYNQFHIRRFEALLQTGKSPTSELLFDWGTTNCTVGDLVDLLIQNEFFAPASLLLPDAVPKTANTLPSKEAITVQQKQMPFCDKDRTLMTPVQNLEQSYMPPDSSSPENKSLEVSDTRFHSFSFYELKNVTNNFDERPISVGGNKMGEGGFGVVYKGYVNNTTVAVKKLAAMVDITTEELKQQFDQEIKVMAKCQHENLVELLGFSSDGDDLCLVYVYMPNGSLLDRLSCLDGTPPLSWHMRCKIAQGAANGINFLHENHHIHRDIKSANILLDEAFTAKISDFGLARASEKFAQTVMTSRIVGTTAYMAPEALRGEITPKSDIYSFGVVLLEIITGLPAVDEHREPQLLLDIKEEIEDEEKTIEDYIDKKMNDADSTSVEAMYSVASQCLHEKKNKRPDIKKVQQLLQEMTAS

CNC(=O)c1nc(-c2cnc(Nc3ccc4ncsc4c3)cc2NC(C)C)sc1C [Example 27, 2-(6-(benzo[d]thiazol-6-ylamino)-4-(isopropylamino)pyridin-3-yl)-N,5-dimethylthiazole-4-carboxamide]
pIC50: 8.74

From patent US9242975B2, “Heterocyclic-substituted pyridyl compounds useful as kinase inhibitors” (Bristol-Myers Squibb Company, priority 2012, dated 2016)
